Experimental data taken from US20250115597A1, “TYK2 INHIBITORS AND COMPOSITIONS AND METHODS THEREOF” (LYNK PHARMACEUTICALS CO. LTD., priority 2021, published 2025).

Molecular target: T1, Ba/F3-FL-TYK2-P760L cells (Homo sapiens, UniProt P29597, P760L, cells depend on it)
T1 construct: BaF3-FL-T2P760L (nM)
Experiment: Anti-proliferative assay, Ba/F3-FL-TYK2-P760L cells (Cell-Titer Glo)
Format: cell-based
Settings: 72 h, read-out: BaF3-FL-T2P760L IC50
Description: Anti-Proliferative Assay Dimerization domain of Tel protein fused with JAK kinase domain was permanently transduced into Ba/F3 cells, whose proliferation is dependent on JAK activity in the absence of IL-3 induction. These engineered Ba/F3 cells (Ba/F3-FL-TYK2-[…], Ba/F3-TEL-TYK2 and Ba/F3-TEL-JAK2) were used to monitor JAK inhibitory activities of the compounds in the cellular. […] Cells were seeded at 2000/well of white flat bottom 96-well plates. The well containing medium only was used as background control. After 24 h growth, cells were treated with compounds. The test compounds were dissolved in DMSO to a stock concentration of 20 mM. 3-fold serially diluted compounds for 9 concentrations with top concentration of 20 μM was added into the each well. […] The cells continued to grow at 37° C. in 5% CO2 for 72 h after compound treatment. The viability was measured by cellular ATP determination using the Cell-Titer Glo luciferase reagent (Promega). The Luminescence value was recorded by a multi-label reader Envision (PerkinElmer).

T1 sequence (P29597 whole entry P760L): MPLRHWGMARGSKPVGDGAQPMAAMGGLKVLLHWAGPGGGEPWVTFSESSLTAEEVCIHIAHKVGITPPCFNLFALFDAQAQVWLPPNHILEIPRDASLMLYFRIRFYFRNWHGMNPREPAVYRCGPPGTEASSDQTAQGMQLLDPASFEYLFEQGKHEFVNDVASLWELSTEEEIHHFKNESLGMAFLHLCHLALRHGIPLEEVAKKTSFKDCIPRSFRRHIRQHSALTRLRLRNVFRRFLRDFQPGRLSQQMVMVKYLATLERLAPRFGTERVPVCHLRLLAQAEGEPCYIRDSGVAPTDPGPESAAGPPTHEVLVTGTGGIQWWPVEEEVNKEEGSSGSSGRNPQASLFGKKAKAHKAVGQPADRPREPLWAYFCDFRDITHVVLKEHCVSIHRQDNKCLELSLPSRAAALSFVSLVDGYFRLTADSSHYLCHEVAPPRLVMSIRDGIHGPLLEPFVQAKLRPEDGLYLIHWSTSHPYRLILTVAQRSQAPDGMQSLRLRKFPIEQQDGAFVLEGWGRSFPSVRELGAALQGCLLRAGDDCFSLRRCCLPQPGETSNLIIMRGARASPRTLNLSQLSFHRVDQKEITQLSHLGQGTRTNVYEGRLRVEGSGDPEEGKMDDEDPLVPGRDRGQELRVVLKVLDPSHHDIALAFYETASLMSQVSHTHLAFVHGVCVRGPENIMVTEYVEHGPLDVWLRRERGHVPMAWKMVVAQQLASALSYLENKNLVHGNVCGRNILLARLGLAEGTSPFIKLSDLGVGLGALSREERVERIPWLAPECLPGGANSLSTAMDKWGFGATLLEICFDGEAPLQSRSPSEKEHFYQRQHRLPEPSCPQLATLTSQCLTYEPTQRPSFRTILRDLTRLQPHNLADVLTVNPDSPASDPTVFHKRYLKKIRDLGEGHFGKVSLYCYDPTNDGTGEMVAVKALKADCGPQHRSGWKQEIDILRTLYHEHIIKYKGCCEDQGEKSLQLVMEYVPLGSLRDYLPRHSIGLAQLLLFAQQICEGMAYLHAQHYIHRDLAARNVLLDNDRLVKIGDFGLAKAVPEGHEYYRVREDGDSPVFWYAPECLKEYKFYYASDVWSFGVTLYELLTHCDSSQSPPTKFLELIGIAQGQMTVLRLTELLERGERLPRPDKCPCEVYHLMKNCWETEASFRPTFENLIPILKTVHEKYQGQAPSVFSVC

Row | SMILES | GI50
1 | COC(=O)c1cnc(NC(=O)C2CC2)cc1Nc1csc2c(C#N)cn(C)c(=O)c12 [Example 186, Methyl 4-((7-cyano-5-methyl-4-oxo-4,5-dihydrothieno[3,2-c]pyridin-3-yl)amino)-6-(cyclopropanecarboxamido)nicotinate] | 309 nM
2 | [2H]C([2H])([2H])NC(=O)c1cnc(NC(=O)C2CC2)cc1Nc1cn(C)c2ccn(-c3cc(C)n(C)n3)c(=O)c12 [Example 119, 6-(Cyclopropanecarbonylamino)-4-[[5-(1,5-dimethylpyrazol-3-yl)-1-methyl-4-oxo-pyrrolo[3,2-c]pyridin-3-yl]amino]-N-(methyl-d3)pyridine-3-carboxamide] | 1510 nM
3 | [2H]C([2H])([2H])NC(=O)c1cnc(Nc2ccc(F)cn2)cc1Nc1cn(C)c2c(F)cn(C)c(=O)c12 [Example 122, 4-((7-Fluoro-1,5-dimethyl-4-oxo-4,5-dihydro-1H-pyrrolo[3,2-c]pyridin-3-yl)amino)-6-((5-fluoropyridin-2-yl)amino)-N-(methyl-d3)nicotinamide] | 34.7 nM
4 | [2H]C([2H])([2H])NC(=O)c1nnc2cc1Nc1cc(cc(-c3ncn(C4CC4)n3)c1OC)COCc1cc(F)cc(n1)N2 [Example 88, 11-(1-Cyclopropyl-1H-1,2,4-triazol-3-yl)-19-fluoro-10-methoxy-N-(methyl-d3)-15-oxa-2,4,5,8,21-pentaazatetracyclo[15.3.1.1^{3,7}.1^{9,13}]tricosa-1(21),3,5,7(23),9(22),10,12,17,19-nonaene-6-carboxamide] | 46.9 nM
5 | [2H]C([2H])([2H])NC(=O)c1cnc(NC(=O)C2CC2)cc1Nc1csc2cnn(C(C)C(F)(F)F)c(=O)c12 (single isomer, unassigned) [Example 185B, (S*)-6-(Cyclopropanecarboxamido)-N-(methyl-d3)-4-((4-oxo-5-(1,1,1-trifluoropropan-2-yl)-4,5-dihydrothieno[2,3-d]pyridazin-3-yl)amino)nicotinamide] | 912 nM
6 | [2H]C([2H])([2H])NC(=O)c1cnc2cc1Nc1cc(cc(-c3ncn(C(C)C)n3)c1OC)COCc1cccc(n1)N2 [Example 84, 10-Methoxy-N-(methyl-d3)-11-[1-(propan-2-yl)-1H-1,2,4-triazol-3-yl]-15-oxa-2,4,8,21-tetraazatetracyclo[15.3.1.1^{3,7}.1^{9,13}]tricosa-1(21),3,5,7(23),9(22),10,12,17,19-nonaene-6-carboxamide] | 676 nM
7 | [2H]C([2H])([2H])NC(=O)c1cnc(NC(=O)C2CC2)cc1Nc1csc2cnn(C(C)COC)c(=O)c12 (stereo not shown) [Example 182, 6-(Cyclopropanecarboxamido)-4-((5-(1-methoxypropan-2-yl)-4-oxo-4,5-dihydrothieno[2,3-d]pyridazin-3-yl)amino)-N-(methyl-d3)nicotinamide] | 491 nM
8 | [2H]C([2H])([2H])NC(=O)c1cnc(NC(=O)C2CC2)cc1Nc1cn(C)c2ccn(-c3ccn(C)n3)c(=O)c12 [Example 118, 6-(Cyclopropanecarbonylamino)-4-[[1-methyl-5-(1-methylpyrazol-3-yl)-4-oxo-pyrrolo[3,2-c]pyridin-3-yl]amino]-N-(methyl-d3)pyridine-3-carboxamide] | 1060 nM
9 | [2H]C([2H])([2H])NC(=O)c1cnc(Nc2cccc(C(F)(F)F)n2)nc1Nc1cccc(-c2ncn(C)n2)c1OC [Example 62, 4-((2-Methoxy-3-(1-methyl-1H-1,2,4-triazol-3-yl)phenyl)amino)-N-(methyl-d3)-2-((6-(trifluoromethyl)pyridin-2-yl)amino)pyrimidine-5-carboxamide] | 1180 nM
10 | [2H]C([2H])([2H])NC(=O)c1cnc(NC(=O)[C@H]2C[C@H]2F)cc1Nc1cn(C)c2ccn(CC)c(=O)c12 [Example 101, 4-[(5-Ethyl-1-methyl-4-oxo-pyrrolo[3,2-c]pyridin-3-yl)amino]-6-[[(1R,2R)-2-fluorocyclopropanecarbonyl]amino]-N-(methyl-d3)pyridine-3-carboxamide] | 809 nM
11 | [2H]C([2H])([2H])NC(=O)c1cnc(NC(=O)C2CC2)cc1Nc1csc2cnn(C(C)C(F)(F)F)c(=O)c12 (single isomer, unassigned) [Example 185A, (R*)-6-(cyclopropanecarboxamido)-N-(methyl-d3)-4-((4-oxo-5-(1,1,1-trifluoropropan-2-yl)-4,5-dihydrothieno[2,3-d]pyridazin-3-yl)amino)nicotinamide] | 205 nM
12 | [2H]C([2H])([2H])NC(=O)c1cnc(NC(=O)C2CC2)cc1Nc1cn(C)c2ccn(C(C)C(F)(F)F)c(=O)c12 (single isomer, unassigned) [Example 190B, (S*)-6-(Cyclopropanecarboxamido)-N-(methyl-d3)-4-((1-methyl-4-oxo-5-(1,1,1-trifluoropropan-2-yl)-4,5-dihydro-1H-pyrrolo[3,2-c]pyridin-3-yl)amino)nicotinamide] | 327 nM
13 | CNC(=O)c1nnc(Nc2ccc(F)cn2)cc1Nc1cccc(OC2CCOCC2)c1OC [Example 25, 6-((5-Fluoropyridin-2-yl)amino)-4-((2-methoxy-3-((tetrahydro-2H-pyran-4-yl)oxy)phenyl)amino)-N-methylpyridazine-3-carboxamide] | 7820 nM
14 | [2H]C([2H])([2H])NC(=O)c1cnc(NC(=O)C2CC2)cc1Nc1ccc2cnn(C(C)C)c2c1OC [Example 126, 6-(Cyclopropanecarboxamido)-4-((1-isopropyl-7-methoxy-1H-indazol-6-yl)amino)-N-(methyl-d3)nicotinamide] | 522 nM
15 | CNC(=O)c1cnc(NC(=O)C2CC2(F)F)nc1Nc1cccc(-c2ncn(C)n2)c1OC (stereo not shown) [Example 64, 2-(2,2-Difluorocyclopropane-1-carboxamido)-4-((2-methoxy-3-(1-methyl-1H-1,2,4-triazol-3-yl)phenyl)amino)-N-methylpyrimidine-5-carboxamide] | 2040 nM
16 | CNC(=O)c1cnc(NC(=O)C2CC2)cc1Nc1csc2c(C)cn(C)c(=O)c12 [Example 188, 6-(Cyclopropanecarboxamido)-4-((5,7-dimethyl-4-oxo-4,5-dihydrothieno[3,2-c]pyridin-3-yl)amino)-N-methylnicotinamide] | 267 nM
17 | [2H]C([2H])([2H])NC(=O)c1cnc(Nc2ccc(F)cc2)nc1Nc1cn(C)c2ccn(C)c(=O)c12 [Example 4, 4-((1,5-Dimethyl-4-oxo-4,5-dihydro-1H-pyrrolo[3,2-c]pyridin-3-yl)amino)-2-((4-fluorophenyl)amino)-N-(methyl-d3)pyrimidine-5-carboxamide] | 548 nM
18 | CNC(=O)c1cnc(NC(=O)C2CC2)cc1Nc1ccc2nn3c(c2c1OC)CCC3 [Example 156, 6-(Cyclopropanecarboxamido)-4-((9-methoxy-2,3-dihydro-1H-pyrrolo[1,2-b]indazol-8-yl)amino)-N-methylnicotinamide] | 2900 nM
19 | [2H]C([2H])([2H])NC(=O)c1cnc(Nc2cnn(C3CC3)c2)nc1Nc1cccc(-c2ncn(C)n2)c1OC [Example 2, 2-[(1-Cyclopropylpyrazol-4-yl)amino]-4-[2-methoxy-3-(1-methyl-1,2,4-triazol-3-yl)anilino]-N-(trideuteromethyl)pyrimidine-5-carboxamide] | 199 nM
20 | [2H]C([2H])([2H])NC(=O)c1cnc(Nc2ccn(C3CC3)n2)nc1Nc1cccc(-c2ncn(C)n2)c1OC [Example 146, 2-((1-Cyclopropyl-1H-pyrazol-3-yl)amino)-4-((2-methoxy-3-(1-methyl-1H-1,2,4-triazol-3-yl)phenyl)amino)-N-(methyl-d3)pyrimidine-5-carboxamide] | 832 nM
21 | [2H]C([2H])([2H])NC(=O)c1nnc(NC(=O)C2CC2)cc1Nc1csc2ccn(C)c(=O)c12 [Example 196, 6-(Cyclopropanecarboxamido)-N-(methyl-d3)-4-((5-methyl-4-oxo-4,5-dihydrothieno[3,2-c]pyridin-3-yl)amino)pyridazine-3-carboxamide] | 45.7 nM
22 | [2H]C([2H])([2H])NC(=O)c1nnc2cc1Nc1cc(cc(-c3nc(C)co3)c1OC)COCc1nc(ccc1F)N2 [Example 93, 18-Fluoro-10-methoxy-N-(methyl-d3)-11-(4-methyl-1,3-oxazol-2-yl)-15-oxa-2,4,5,8,21-pentaazatetracyclo[15.3.1.1^{3,7}.1^{9,13}]tricosa-1(20),3,5,7(23),9(22),10,12,17(21),18-nonaene-6-carboxamide] | 97 nM
23 | [2H]C([2H])([2H])NC(=O)c1cnc(NC(=O)C2CC2)cc1Nc1ccc2cnn(C(C)C)c2c1OC([2H])([2H])[2H] [Example 133, 6-(Cyclopropanecarboxamido)-4-((1-isopropyl-7-(methoxy-d3)-1H-indazol-6-yl)amino)-N-(methyl-d3)nicotinamide] | 394 nM
24 | CNC(=O)c1cnc(Nc2ccc(F)cn2)nc1Nc1cccc(-c2ncn(C)n2)c1OC [Example 5, 2-((5-Fluoropyridin-2-yl)amino)-4-((2-methoxy-3-(1-methyl-1H-1,2,4-triazol-3-yl)phenyl)amino)-N-methylpyrimidine-5-carboxamide] | 1350 nM
25 | CNC(=O)c1cnc(NC(=O)C2CC2)cc1Nc1cn(C)c2ncn([C@@H](C)C(F)(F)F)c(=O)c12 (single isomer, unassigned) [Example 234B, (S*)-6-(cyclopropanecarboxamido)-N-(methyl-d3)-4-((7-methyl-4-oxo-3-(1,1,1-trifluoropropan-2-yl)-4,7-dihydro-3H-pyrrolo[2,3-d]pyrimidin-5-yl)amino)nicotinamide] | 599 nM
